Measured values as given in ChEMBL document CHEMBL1128663, “Wiedendiol-A and -B, cholesteryl ester transfer protein inhibitors from the marine sponge Xestospongia wiedenmayeri” (Bioorg Med Chem Lett, 1995).

Target: T1, Cholesteryl ester transfer protein (Homo sapiens, UniProt P11597)
T1 sequence (P11597 whole entry): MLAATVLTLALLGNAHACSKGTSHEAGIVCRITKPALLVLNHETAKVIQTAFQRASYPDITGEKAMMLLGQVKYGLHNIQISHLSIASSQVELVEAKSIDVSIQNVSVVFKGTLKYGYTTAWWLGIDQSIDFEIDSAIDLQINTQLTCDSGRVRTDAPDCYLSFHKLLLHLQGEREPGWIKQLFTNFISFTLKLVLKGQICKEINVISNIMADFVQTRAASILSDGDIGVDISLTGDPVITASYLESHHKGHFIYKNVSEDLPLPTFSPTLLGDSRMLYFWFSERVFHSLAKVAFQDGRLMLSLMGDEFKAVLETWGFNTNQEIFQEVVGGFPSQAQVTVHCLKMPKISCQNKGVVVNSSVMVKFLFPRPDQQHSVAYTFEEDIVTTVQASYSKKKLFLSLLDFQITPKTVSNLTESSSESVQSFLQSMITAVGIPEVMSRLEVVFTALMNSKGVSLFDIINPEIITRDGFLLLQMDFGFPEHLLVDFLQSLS
Experiment: Compound was tested for CETP inhibition by a precipitation method to separate lipoproteins after incubation of radiolabeled HDL with LDL and CETP.

Row | IC50 | Structure (SMILES)
1 | 0.6 µM | COc1ccc(O)c(O)c1/C=C1\[C@@H](C)CCC2C(C)(C)CCC[C@]12C (some centres not stated)
2 | 1 µM | COc1ccc(O)c(O)c1CC1=C(C)CCC2C(C)(C)CCC[C@]12C (some centres not stated)

Target: T1, Cholesteryl ester transfer protein
Experiment: Compound was tested for Cholesteryl ester transfer protein (CETP) inhibition by CETP-SPA assay

Row | Structure (SMILES) | IC50
3 | COc1ccc(O)c(O)c1CC1=C(C)CCC2C(C)(C)CCC[C@]12C (some centres not stated) | 5 µM
4 | CC1=CCC[C@H]2[C@](C)(Cc3cc(O)ccc3O)[C@@H](C)CC[C@]12C [AVAROL] | 25 µM
5 | CC1(C)CCC[C@]2(C)C3C=C4C(=CC(=O)C(O)=C4Cl)OC3CC[C@@]12C (some centres not stated) [CHOLOROPUUPEHENONE] | 0.3 µM
6 | C=C1CCC[C@H]2[C@](C)(CC3=C(O)C(=O)C=C(OC)C3=O)[C@@H](C)CC[C@]12C [ILIMAQUINONE] | 100 µM
7 | CC1(C)CCC[C@]2(C)[C@H]3C=C4C=C(O)C(=O)C=C4O[C@@]3(C)CC[C@@H]12 [PUUPEHENONE] | 6 µM
8 | C[C@]12CC(=O)[C@@H](O)[C@](C)(CO)[C@@H]1CC[C@@]1(C)c3cocc3CC[C@H]21 [SPONGIADIOL] | 196 µM
9 | CC1=CC[C@H]2C(C)(C)CCC[C@]2(C)[C@H]1C[C@H](OS(=O)(=O)[O-])[C@H](C)CCCc1ccoc1.C[N+](C)=C(N)N [SULFIRICIN] | > 190 µM

Now from value to compound:

Row | IC50 | Structure (SMILES)
10 | 46 µM | COc1ccc(O)c2c1C[C@]1(C)[C@@H](C)CCC3C(C)(C)CCC[C@]31O2 (some centres not stated)
11 | 22 µM | C[C@H]1CCC2C(C)(C)CCC[C@]23Oc2ccc(O)cc2C[C@]13C (some centres not stated)
12 | 5 µM | COc1ccc(O)c(O)c1/C=C1\[C@@H](C)CCC2C(C)(C)CCC[C@]12C (some centres not stated)
